Laboratory results as given in patent US7659394B2 (Pfizer Inc, priority 2004, dated 2010).

What was measured:
[1] = biological target: T1, human norepinephrine transporter (Homo sapiens, UniProt P23975); assay: hNET receptor binding ([125I]-RTI-55 radioligand binding); settings: membranes of HEK-293 cells transfected with human norepinephrine transporter, IC50 converted to Ki by Cheng-Prusoff, read-out: hNET (Ki)
T1 construct: host or cells: HEK-293
From the text: (§1) The ability of the compounds of this invention to bind to the hNET and serotonin SERT receptor can be determined using conventional radiolig and receptor binding assays. The receptors can be heterologously expressed in cell lines and experiments conducted in membrane preparations from the cell lines using procedures outlined below. IC50 concentrations can be determined by nonlinear regression of concentration-dependent reduction in specific binding. The Cheng-Prussoff equation can be used to convert the IC50 to Ki concentrations.
Cell pastes of HEK-293 cells transfected with the human norepinephrine transporter were supplied by the Pfizer Ann Arbor Protein Expression and Production group. […] Aliquots of membranes (5 mg/ml protein) were stored in liquid nitrogen until used.
(§2) The reaction was incubated by gentle agitation for 90 min at room temperature and was terminated by filtration through Whatman GF/C filter plates using a Brandel 96-well plate harvester. […] Test compounds were run in duplicate, and specific binding was defined as the difference between binding in the presence and absence of 10 μM desipramine.
(§3) Excel and GraphPad Prism software were used for data calculation and analysis. IC50 values were converted to Ki values using the Cheng-Prusoff equation.

[2] = biological target: T2, human seritonin transporter (Homo sapiens, UniProt P31645); assay: hSERT receptor binding ([125I]-RTI-55 radioligand binding); settings: membranes of HEK-293 cells transfected with human seritonin transporter, IC50 converted to Ki by Cheng-Prusoff, read-out: SERT (Ki)
T2 construct: host or cells: HEK-293
From the text: as §1
Cell pastes of HEK-293 cells transfected with the human seritonin transporter were supplied by the Pfizer Ann Arbor Protein Expression and Production group. […] Aliquots of membranes (5 mg/ml protein) were stored in liquid nitrogen until used.
as §2, with “[…] citalopram.” for “μM desipramine.”
as §3

T1 sequence (P23975 whole entry): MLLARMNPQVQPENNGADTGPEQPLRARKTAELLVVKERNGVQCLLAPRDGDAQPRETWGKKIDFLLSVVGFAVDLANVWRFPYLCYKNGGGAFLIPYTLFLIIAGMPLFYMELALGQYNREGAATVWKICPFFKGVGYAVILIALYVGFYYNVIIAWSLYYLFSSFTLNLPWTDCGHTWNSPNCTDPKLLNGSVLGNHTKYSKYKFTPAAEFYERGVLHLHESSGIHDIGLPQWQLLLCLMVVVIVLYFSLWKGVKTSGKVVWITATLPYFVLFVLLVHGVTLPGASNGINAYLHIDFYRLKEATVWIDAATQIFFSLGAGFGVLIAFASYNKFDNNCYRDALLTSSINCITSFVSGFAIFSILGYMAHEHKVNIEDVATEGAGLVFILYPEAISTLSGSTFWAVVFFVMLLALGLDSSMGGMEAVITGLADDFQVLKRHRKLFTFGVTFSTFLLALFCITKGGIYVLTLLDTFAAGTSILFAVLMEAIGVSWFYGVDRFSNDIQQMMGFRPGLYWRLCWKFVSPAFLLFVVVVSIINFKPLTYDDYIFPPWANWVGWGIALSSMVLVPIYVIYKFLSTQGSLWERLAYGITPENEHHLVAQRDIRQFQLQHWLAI
T2 sequence (P31645 whole entry): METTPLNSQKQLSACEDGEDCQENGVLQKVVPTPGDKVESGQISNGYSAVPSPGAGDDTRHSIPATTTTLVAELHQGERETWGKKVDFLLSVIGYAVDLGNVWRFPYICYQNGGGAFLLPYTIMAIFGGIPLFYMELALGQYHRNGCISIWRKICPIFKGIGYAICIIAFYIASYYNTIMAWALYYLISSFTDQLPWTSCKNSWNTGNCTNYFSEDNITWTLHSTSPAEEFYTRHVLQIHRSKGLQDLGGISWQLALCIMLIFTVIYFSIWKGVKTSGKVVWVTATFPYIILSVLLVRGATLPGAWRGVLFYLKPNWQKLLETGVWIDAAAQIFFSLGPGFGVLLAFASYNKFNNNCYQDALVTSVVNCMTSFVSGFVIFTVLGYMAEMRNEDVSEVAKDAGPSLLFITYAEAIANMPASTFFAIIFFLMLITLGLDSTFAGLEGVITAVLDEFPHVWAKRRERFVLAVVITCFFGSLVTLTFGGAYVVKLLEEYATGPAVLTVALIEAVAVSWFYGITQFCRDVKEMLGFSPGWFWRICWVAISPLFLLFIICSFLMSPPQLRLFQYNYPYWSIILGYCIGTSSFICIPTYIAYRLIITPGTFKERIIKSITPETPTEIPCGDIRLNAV

Structure (SMILES) | Ki [1] [µM] | Ki [2] [µM]
Fc1ccc([C@H](Oc2ccccc2Br)[C@H]2CNCCO2)cc1 [Example 47, (R)-2-[(S)-(2-Bromo-phenoxy)-(4-fluoro-phenyl)-methyl]-morpholine] | 0.0084 | 0.052
Fc1ccc([C@H](Oc2ccccc2F)[C@H]2CNCCO2)cc1 [Example 34, (R)-2-[(S)-(2-Fluoro-phenoxy)-(4-fluoro-phenyl)-methyl]-morpholine] | 0.141 | 0.184
Fc1ccc(C(Oc2c(F)cccc2F)[C@H]2CNCCO2)cc1 (stereo partly drawn) [Example 111, (2R)-2-[(2,6-difluorophenoxy)(4-fluorophenyl)methyl]morpholine] | 0.105 | 0.237
Brc1ccccc1O[C@@H](c1ccccc1)[C@H]1CNCCO1 [Example 67, (R)-2-[(S)-(2-Bromo-phenoxy)-phenyl-methyl]-morpholine] | 0.021 | 0.093
Fc1ccc(O[C@@H](c2ccccc2)[C@@H]2CNCCO2)cc1 [Example 69, (S)-2-[(S)-(4-Fluoro-phenoxy)-phenyl-methyl]-morpholine] | 0.026 | 1.89
Fc1ccc([C@H](Oc2c(F)cccc2F)[C@H]2CNCCO2)cc1 [Example 66, (R)-2-[(S)-(2,6-Difluoro-phenoxy)-(4-fluoro-phenyl)-methyl]-morpholine] | 0.081 | 0.176
Fc1ccc(-c2ncccc2O[C@@H](c2ccccc2)[C@@H]2CNCCO2)cc1 [Example 33, (S)-2-{(S)-[2-(4-Fluoro-phenyl)-pyridin-3-yloxy]-phenyl-methyl}-morpholine] | 0.022 | 2.41
FCCCOc1ccccc1O[C@@H](c1ccccc1)[C@@H]1CNCCO1 [Example 161, (2S)-2-[(S)-[2-(3-fluoropropoxy)phenoxy](phenyl)methyl]morpholine] | 0.005 | 3.88
Fc1ccccc1-c1ccccc1O[C@@H](c1ccccc1)[C@@H]1CNCCO1 [Example 86, (S)-2-[(S)-(2′-Fluoro-biphenyl-2-yloxy)-phenyl-methyl]-morpholine] | 0.014 | 8.09
Fc1cccc(F)c1OC(c1nccs1)[C@@H]1CNCCO1 (stereo partly drawn) [Example 175, (2S)-2-[(2,6-difluorophenoxy)(1,3-thiazol-2-yl)methyl]morpholine] | 0.015 | 7.64
Fc1cccc(F)c1OC(c1ncco1)[C@@H]1CNCCO1 (mixture of isomers) [Example 196, (S)-2-[(2,6-difluorophenoxy)(1,3-oxazol-2-yl)methyl]morpholine] | 0.009 | ≥ 10
COc1cccc([C@H](Oc2c(F)cccc2Br)[C@@H]2CNCCO2)n1 [Example 185, (2S)-2-[(S)-(2-bromo-6-fluorophenoxy)(6-methoxypyridin-2-yl)methyl]morpholine] | 0.008 | 0.201
Fc1cccc(Cl)c1O[C@@H](c1ccccc1)[C@@H]1CNCCO1 [Example 60] | 0.014 | 0.078
C=CCc1ccccc1O[C@@H](c1ccccc1)[C@@H]1CNCCO1 [Example 39, (S)-2-[(S)-(2-Allyl-phenoxy)-phenyl-methyl]-morpholine] | 0.0037 | 0.475
FC(F)Oc1ccccc1O[C@@H](c1ccccc1)[C@@H]1CNCCO1 [Example 57, (S)-2-[(S)-(2-Difluoromethoxy-phenoxy)-phenyl-methyl]-morpholine] | 0.024 | 0.094

Next, values leading:

Ki [1] [µM] | Ki [2] [µM] | Structure (SMILES)
0.02 | 1.04 | CCCOc1cccc(F)c1O[C@@H](c1ccccc1)[C@@H]1CNCCO1 [Example 171, (2S)-2-[(S)-(2-fluoro-6-propoxyphenoxy)(phenyl)methyl]morpholine]
0.018 | 0.811 | CCOc1ncccc1O[C@@H](Cc1ccccc1)[C@@H]1CNCCO1 [Example 197, (2S)-2-{(1S)-1-[(2-ethoxypyridin-3-yl)oxy]-2-phenylethyl}morpholine]
0.0059 | 0.259 | CSc1ccccc1O[C@@H](c1ccccc1)[C@@H]1CNCCO1 [Example 53, (S)-2-[(S)-(2-Methylsulfanyl-phenoxy)-phenyl-methyl]-morpholine]
0.032 | 4.48 | CCCc1ncccc1O[C@@H](c1ccccc1)[C@@H]1CNCCO1 [Example 135, (2S)-2-{(S)-phenyl[(2-propylpyridin-3-yl)oxy]methyl}morpholine]
0.031 | 7.08 | CC(C)Cc1ncccc1O[C@@H](c1ccccc1)[C@@H]1CNCCO1 [Example 182, (2S)-2-[(S)-[(2-isobutylpyridin-3-yl)oxy](phenyl)methyl]morpholine]
0.01 | ≥ 10 | Fc1ccccc1OC(c1ccccn1)[C@@H]1CNCCO1 (single isomer, unassigned) [Example 120]
0.028 | 0.676 | CCOc1ccccc1O[C@@H](c1cccc(OC)n1)[C@@H]1CNCCO1 [Example 108, (2S)-2-[(S)-(2-ethoxyphenoxy)(6-methoxypyridin-2-yl)methyl]morpholine]
1.5 | 5.59 | CCOc1ccccc1OC(CC(C)C)[C@@H]1CNCCO1 (mixture of isomers) [Example 105, (2S)-2-[(1S)-1-(2-ethoxyphenoxy)-3-methylbutyl]morpholine]
0.005 | 0.263 | CCOc1ncccc1O[C@@H](CC1CCCCC1)[C@@H]1CNCCO1 [Example 162, (2S)-2-{(1S)-2-cyclohexyl-1-[(2-ethoxypyridin-3-yl)oxy]ethyl}morpholine]
0.124 | ≥ 10 | CCOc1ccccc1O[C@H](c1cccnc1)[C@@H]1CNCCO1 (single isomer, unassigned) [Example 25]
7.9 | 0.412 | Fc1ccc(O[C@H](c2ccccn2)[C@H]2CNCCO2)c(F)c1 [Example 27]
0.05 | 0.065 | c1ccc([C@H](Oc2ccccc2C2CC2)[C@H]2CNCCO2)cc1 [Example 71, (R)-2-[(S)-(2-Cyclopropyl-phenoxy)-phenyl-methyl]-morpholine]
0.009 | 2.31 | CCOc1ncccc1OC(CC(C)C)[C@@H]1CNCCO1 (stereo partly drawn) [Example 149, (2S)-2-{1-[(2-ethoxypyridin-3-yl)oxy]-3-methylbutyl}morpholine]
0.152 | ≥ 10 | CCOc1ccccc1OC(c1cccc[n+]1[O-])[C@@H]1CNCCO1 (stereo in doubt) [Example 100, (2S)-2-[(S)-(2-ethoxyphenoxy)(1-oxidopyridin-2-yl)methyl]morpholine]
0.014 | 2.21 | COc1cccc([C@H](Oc2c(F)cccc2OC)[C@@H]2CNCCO2)n1 [Example 188, (2S)-2-[(S)-(2-fluoro-6-methoxyphenoxy) (6-methoxypyridin-2-yl)methyl]morpholine]
0.006 | 4.34 | Cc1coc(C(Oc2ccccc2C2CC2)[C@@H]2CNCCO2)n1 (stereo partly drawn) [Example 190, (2S)-2-[(2-cyclopropylphenoxy)(4-methyl-1,3-oxazol-2-yl)methyl]morpholine]
0.023 | 0.066 | Fc1ccc(O[C@@H](c2ccccc2)[C@@H]2CNCCO2)c(C2CC2)c1 [Example 119, (2S)-2-[(S)-(2-cyclopropyl-4-fluorophenoxy)(phenyl)methyl]morpholine]
0.012 | – | N#Cc1ccccc1O[C@@H](c1ccccn1)[C@@H]1CNCCO1 [Example 22 (2S, 3S), (2S,3S)-2-(Morpholin-2-yl-pyridin-2-yl-methoxy)-benzonitrile]
